Assay results as given in article PMC7949037, “The allosteric inhibition of glycine transporter 2 by bioactive lipid analgesics is controlled by penetration into a deep lipid cavity” (The Journal of Biological Chemistry, 2021).
Where two headings read alike, the source gives them in different places. Marks after values point to notes of the source that are not given here. Each block holds one molecule with its values, some of them ahead of it.

What was measured:
[1] = target: T1, human glycine transporter 2 (GlyT2 or SLC6A5) (Homo sapiens, UniProt Q9Y345); test: Inhibition of glycine transport currents, two-electrode voltage clamp in oocytes expressing WT GlyT2; assay type: cell-based; details: for % Maximal inhibition / IC50: GlyT2; for IC50: 30 μM glycine, 95% confidence interval in brackets; for Fold less potent than the corresponding L-isomer: GlyT2 IC50, D-isomer versus L-isomer
T1 construct: expressed in transfected cells; host or cells: Xenopus laevis oocytes injected with cRNA
T1 sequence (Q9Y345 1-797): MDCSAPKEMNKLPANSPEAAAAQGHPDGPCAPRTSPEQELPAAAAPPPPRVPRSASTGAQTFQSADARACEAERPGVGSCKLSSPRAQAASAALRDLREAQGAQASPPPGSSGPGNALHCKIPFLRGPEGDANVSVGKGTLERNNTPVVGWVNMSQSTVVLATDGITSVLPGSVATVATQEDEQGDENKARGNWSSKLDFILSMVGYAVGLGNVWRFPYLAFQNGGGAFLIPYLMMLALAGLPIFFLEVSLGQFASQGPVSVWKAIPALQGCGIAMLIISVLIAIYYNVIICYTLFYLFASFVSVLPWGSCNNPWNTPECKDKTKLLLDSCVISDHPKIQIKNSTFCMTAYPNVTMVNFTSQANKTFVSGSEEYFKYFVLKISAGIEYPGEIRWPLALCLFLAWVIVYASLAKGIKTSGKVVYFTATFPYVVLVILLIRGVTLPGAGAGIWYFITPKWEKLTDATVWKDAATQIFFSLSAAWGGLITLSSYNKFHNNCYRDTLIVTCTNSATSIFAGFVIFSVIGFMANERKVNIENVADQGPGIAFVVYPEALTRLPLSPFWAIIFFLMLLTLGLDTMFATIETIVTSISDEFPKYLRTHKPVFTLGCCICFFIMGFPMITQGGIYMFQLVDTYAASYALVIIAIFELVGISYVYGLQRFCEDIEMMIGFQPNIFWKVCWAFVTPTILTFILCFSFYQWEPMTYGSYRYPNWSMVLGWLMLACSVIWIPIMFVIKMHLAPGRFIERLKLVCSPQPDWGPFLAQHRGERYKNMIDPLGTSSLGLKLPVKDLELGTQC
Method: All N-acyl amino acids were synthesized as previously described ([13]). See Supporting Information for full details. Stock solutions of 10 mg ml^−1 of N-acyl amino acids were dissolved in dimethyl sulfoxide and diluted in frog Ringer's solution (96 mM NaCl, 2 mM KCl, 1 mM MgCl2, 1.8 mM CaCl2, 5 mM Hepes, pH 7.5) to desired concentrations. Final solutions contained 0.0025% dimethyl sulfoxide, a concentration that had no effect on transporter or receptor function.
Human GlyT2a WT complementary DNA was subcloned into the plasmid oocyte transcription vector. The amplified GlyT2/plasmid oocyte transcription vector product was then transformed in Escherichia coli cells and subsequently purified using the PureLink Quick Plasmid Miniprep Kit (Invitrogen by Life Technologies) and sequenced by the Australian Genome Research Facility (Sydney, Australia). The purified plasmid DNA was linearized via the restriction enzyme, SpeI (New England Biolabs [Genesearch]) for GlyT2a. Complementary RNAs were synthesized using the mMESAGE mMACHINE T7 kit (Ambion).
All work involving the use of animals was performed in accordance with the Australian Code of Practice for the Care and Use of Animals for Scientific Purposes. […] Stage V oocytes were isolated from the lobe via digestion with 2 mg ml^−1 collagenase A (Boehringer) at 26 °C for 1 h, and 20 ng of cRNA encoding GlyT2 was injected into each oocyte cytoplasm (Drummond Nanoinject; Drummond Scientific Co). The oocytes were then stored in frog Ringer's solution (96 mM NaCl, 2 mM KCl, 1 mM MgCl2, 1.8 mM CaCl2, 5 mM Hepes, pH 7.5), which was supplemented with 2.5 mM sodium pyruvate, 0.5 mM theophylline, 50 μg/ml gentamicin and […] tetracycline. The oocytes were stored at 18 °C for 3 to 5 days, until transporter expression was adequate for measurement using the two-electrode voltage clamp technique. Adequate transporter expression was defined as a ≥30 nA current following application of the glycine EC50.
(§1) GlyT2 is electrogenic, allowing activation to be measured via the two-electrode voltage clamp technique. Oocytes were voltage clamped at −60 mV, and whole-cell currents generated by the substrate were recorded with a Geneclamp 500 amplifier (Axon Instruments), digitized by a Powerlab 2/20 chart recorder (ADInstruments). LabChart version 8 software (ADInstruments, Axon Instruments) was used to visualize and process current traces. Recordings were performed in frog Ringer's solution. Oocytes were placed in an oval-shaped bath with a volume of 0.3 ml, with laminar flow around the oocyte at a rate of 12 ml min^−1 under gravity feed.
(§2) Each of the synthesized acyl-lysine compounds were first tested for their inhibitory activity by coapplying the analogs with 30 μM glycine and assessing their ability to reduce glycine transport currents. Increasing concentrations of each acyl-lysine inhibitor were applied to generate concentration response curves, from which IC50 values and percent maximal inhibition values were calculated.

GlyT1 [2] = target: T2, GlyT1 (Homo sapiens, UniProt P48067); test: Selectivity test against GlyT1 transporter, two-electrode voltage clamp electrophysiology; assay type: cell-based
T2 construct: expressed in transfected cells
T2 sequence (P48067 1-706): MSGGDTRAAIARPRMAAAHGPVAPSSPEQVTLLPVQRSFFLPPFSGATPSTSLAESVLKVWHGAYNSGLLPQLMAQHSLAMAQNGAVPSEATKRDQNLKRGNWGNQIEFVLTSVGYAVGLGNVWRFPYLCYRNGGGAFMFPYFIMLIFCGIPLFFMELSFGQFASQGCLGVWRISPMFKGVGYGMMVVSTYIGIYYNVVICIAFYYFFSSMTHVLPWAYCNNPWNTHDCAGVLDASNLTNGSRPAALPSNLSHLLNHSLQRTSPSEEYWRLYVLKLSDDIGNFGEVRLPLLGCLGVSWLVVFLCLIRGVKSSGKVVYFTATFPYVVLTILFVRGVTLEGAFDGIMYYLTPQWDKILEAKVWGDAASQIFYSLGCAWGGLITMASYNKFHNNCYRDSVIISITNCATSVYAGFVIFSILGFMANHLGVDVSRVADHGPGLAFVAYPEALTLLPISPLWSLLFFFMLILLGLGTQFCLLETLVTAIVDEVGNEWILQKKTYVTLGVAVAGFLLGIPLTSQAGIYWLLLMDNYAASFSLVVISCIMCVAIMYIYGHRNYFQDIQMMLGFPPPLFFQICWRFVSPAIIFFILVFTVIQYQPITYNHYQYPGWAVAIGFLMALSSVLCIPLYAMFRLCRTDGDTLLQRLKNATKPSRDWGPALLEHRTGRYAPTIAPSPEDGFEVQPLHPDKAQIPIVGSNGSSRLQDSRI
Excerpt: The lipid inhibitors described previously contain 18 carbon acyl tails with a cis-double bond in the Δ9 position (i.e., nine bonds from the amide linkage to the amino acid head group), and penetration of the lipid tails into the allosteric site appears to be a critical determinant of inhibitory activity. To investigate the effect of tail length on GlyT2 inhibitory activity, we synthesized D- and L-lysine–based inhibitors with truncated tails. Double bonds were maintained in the Δ9 position, and overall chain lengths were reduced to C16 or C14 (C16ω7-Lys and C14ω5-Lys, respectively). The chemical structures of these new lipids are shown in Figure 1, and their synthesis and characterization are described in the Supporting information section. Newly synthesized acyl lysine analogs were then tested against GlyT2 and also tested for selectivity by testing against the closely related GlyT1 transporter using two-electrode voltage clamp electrophysiology (see Table 1 for inhibitory data).
as §1, §2

[3] = target: T1, human glycine transporter 2 (GlyT2 or SLC6A5); details: cited from earlier work; for % Maximal inhibition / IC50: previously published data, ref Mostyn et al., 2019 ([6]); for GlyT2 inhibitory activity in words: D-configuration head group
GlyT1 [4] = target: T2, GlyT1; set-up: method as in Mostyn et al., 2019 ([6]); details: previously published data, ref Mostyn et al., 2019 ([6]), cited from earlier work
GlyT2 Y550L = tested on: GlyT2 Y550L; set-up: method as in PMID 31621581; details: mutagenesis data; cited from earlier work
GlyT2 W563L = tested on: GlyT2 W563L; set-up: method as in PMID 31621581; details: mutagenesis data; cited from earlier work
[5] = cited from earlier work
[6] = cited from earlier work; remark: listed apart in the source
[7] = tested on: rat model of neuropathic pain; details: cited from earlier work
GlyT2 = details: most potent small molecule GlyT2 inhibitor to date, reference not given; cited from earlier work

- % Maximal inhibition ([1]; D-Head group stereochemistry): 79.7 ± 3.6%
- IC50 ([1]; D-Head group stereochemistry): 1380 nM
- IC50 (GlyT1 [2]; D-Head group stereochemistry): > 3 µM
SMILES: CCCC/C=C\CCCCCCCC(=O)N[C@H](CCCCN)C(=O)O [C14ω5-D-Lys]

- % Maximal inhibition ([1]; L-Head group stereochemistry): 96.2 ± 7.3%
- IC50 ([1]; L-Head group stereochemistry): 703 nM
- IC50 (GlyT1 [2]; L-Head group stereochemistry): > 3 µM
SMILES: CCCCC=CCCCCCCCC(=O)NC(CCCCN)C(=O)O [C14ω5-L-Lys]

- % Maximal inhibition ([1]; D-Head group stereochemistry): 91.8 ± 8.6%
- IC50 ([1]; D-Head group stereochemistry): 699 nM
- Fold less potent than the corresponding L-isomer [1]: 65 fold
- IC50 (GlyT1 [2]; D-Head group stereochemistry): > 3 µM
SMILES: CCC=CCCCCCCCCCCCC(=O)NC(CCCCN)C(=O)O [C16ω3-D-Lys]

- % Maximal inhibition ([1]; L-Head group stereochemistry): 94.9 ± 1.6%
- IC50 ([1]; L-Head group stereochemistry): 10.8 nM
- IC50 (GlyT1 [2]; L-Head group stereochemistry): > 3 µM
SMILES: CCC=CCCCCCCCCCCCC(=O)NC(CCCCN)C(=O)O [C16ω3-L-Lys]

- % Maximal inhibition ([1]; D-Head group stereochemistry): 96.2 ± 2.1%
- IC50 ([1]; D-Head group stereochemistry): 602 nM
- Fold reduced potency relative to C18ω9-D-Lys ([1]; GlyT2 IC50): 12 fold
- Fold less potent than the corresponding L-isomer [1]: ninefold
- IC50 (GlyT1 [2]; D-Head group stereochemistry): > 3 µM
SMILES: CCCCCC/C=C\CCCCCCCC(=O)N[C@H](CCCCN)C(=O)O [C16ω7-D-Lys]

- % Maximal inhibition ([1]; L-Head group stereochemistry): 90.2 ± 2.1%
- IC50 ([1]; L-Head group stereochemistry): 66.6 nM
- IC50 (GlyT1 [2]; L-Head group stereochemistry): > 3 µM
SMILES: CCCCCCC=CCCCCCCCC(=O)NC(CCCCN)C(=O)O [C16ω7-L-Lys]

- % Maximal inhibition ([1]; D-Head group stereochemistry): 87.6 ± 3.7%
- IC50 ([1]; D-Head group stereochemistry): 64.9 nM
- IC50 (GlyT1 [2]; D-Head group stereochemistry): > 3 µM
SMILES: CCCCC=CCCCCCCCCCCCC(=O)NC(CCCCN)C(=O)O [C18ω5-D-Lys]

- % Maximal inhibition ([1]; L-Head group stereochemistry): 81.3 ± 5.1%
- IC50 ([1]; L-Head group stereochemistry): 67.5 nM
- IC50 (GlyT1 [2]; L-Head group stereochemistry): > 3 µM
SMILES: CCCCC=CCCCCCCCCCCCC(=O)NC(CCCCN)C(=O)O [C18ω5-L-Lys]

SMILES: CCCCCCCC/C=C\CCCCCCCC(=O)N[C@H](CCCCN)C(=O)O [C18ω9-D-Lys, oleoyl D-lysine]
- % Maximal inhibition ([3]; D-Head group stereochemistry): 91.0 ^a %
- IC50 ([3]; D-Head group stereochemistry): 0.0483 µM
- GlyT2 inhibitory activity in words [3]: retains potency
- IC50 (GlyT1 [4]; D-Head group stereochemistry): > 3 µM
- Inhibition of GlyT2 Y550L mutant (GlyT2 Y550L): not inhibited
- Inhibition of GlyT2 W563L mutant (GlyT2 W563L): not inhibited
- Metabolic stability [5]: metabolically stable
- Blood-brain barrier permeability [6]: blood–brain barrier permeable
- Analgesia [7]: produces analgesia
- Side effects [7]: minimal side effects

SMILES: CCCCCCCCC=CCCCCCCCC(=O)NC(Cc1c[nH]c2ccccc12)C(=O)O [C18ω9-D-Trp]
- % Maximal inhibition ([3]; D-Head group stereochemistry): 14.2 ^a %
- IC50 ([3]; D-Head group stereochemistry, μM): > 10 µM
- GlyT2 inhibitory activity in words [3]: inactive
- IC50 (GlyT1 [4]; D-Head group stereochemistry): > 10 µM

SMILES: CCCCCCCC/C=C\CCCCCCCC(=O)N[C@@H](CCCCN)C(=O)O [C18ω9-L-Lys, oleoyl-L-lysine]
- % Maximal inhibition ([3]; L-Head group stereochemistry): 86.8 ^a %
- IC50 ([3]; L-Head group stereochemistry): 0.0255 µM
- IC50 (GlyT1 [4]; L-Head group stereochemistry): > 3 µM
- Inhibition of GlyT2 Y550L mutant (GlyT2 Y550L): not inhibited
- Inhibition of GlyT2 W563L mutant (GlyT2 W563L): not inhibited

SMILES: CCCCCCCCC=CCCCCCCCC(=O)NC(Cc1c[nH]c2ccccc12)C(=O)O [C18ω9-L-Trp]
- % Maximal inhibition ([3]; L-Head group stereochemistry): 86.2 ^a %
- IC50 ([3]; L-Head group stereochemistry): 0.0546 µM
- IC50 (GlyT1 [4]; L-Head group stereochemistry): > 10 µM

SMILES: COc1cc(C(=O)NCC2(N(C)C)CCCC2)cc(OC)c1OCc1ccccc1 [ORG25543]
- IC50 (GlyT2): 16 nM
